Experiments:
WRN enzyme [1] = target: T1, WRN enzyme (Homo sapiens, UniProt Q14191); experiment: WRN helicase activity assay (unwinding of BHQ2/Cy5-labelled double-stranded DNA, fluorescence); assay type: biochemical; settings: Table 3, 30 min pre-incubation, 30 min reaction
T1 construct: host or cells: eukaryotic cells (not further specified)
Excerpt: The WRN enzyme used in the experiment has a His-TEV tag at the N-terminus and is expressed in eukaryotic cells with a purity of 90%. The two single-stranded DNAs used for assay are labeled with BHQ2 and Cy5, respectively. When two fluorophores are in close proximity (when the DNA is in a double-stranded state), no fluorescence signal is detected due to the quenching effect. WRN has helicase activity, which enables the unwinding of double-stranded DNA to form single strands, thereby generating a fluorescence signal.
Two labeled single-stranded DNA strands were annealed to form double-stranded DNA. Annealing buffer: 12 mM Tris (pH 8.0), 300 mM NaCl, 12 mM MgCl2, 2 mM DTT. Annealing program: 95°C, 5 min.
2× WRN enzyme (2 nM) and 2× substrate (100 nM double-stranded DNA, 1000 nM capture DNA, 100 µM ATP) were prepared using buffer (20 mM Bicine, 10 mM KCl, 1 mM MgCl2, 0.005% BSG, 1 mM TCEP, 0.1% F-127, pH 7.5). The test compound was dissolved in DMSO to 10 mM and was gradient-diluted using a 96-well V-bottom plate. 0.5 µL of compound was added to 25 µL of 2× WRN enzyme and incubated at room temperature for 30 min. 25 µL of 2× substrate was added, and the reaction was carried out at room temperature for 30 min. Detection was performed using a microplate reader with an excitation wavelength of 620 nm and an emission wavelength of 685 nm.
The concentration-effect curve was fitted using GraphPad Prism 8 software, and the compound concentration for 50% inhibition (IC50) was calculated. The percentage inhibition for each compound concentration was first calculated, and then the concentration-effect curve was fitted using the "log(inhibitor) vs. normalized response -- Variable slope" equation in GraphPad Prism 8 software to obtain the IC50. [formula] • Positive control: 25 µL 2× WRN enzyme + 0.5 µL DMSO + 25 µL 2× substrate • Negative control: 25 µL 2× buffer + 0.5 µL DMSO + 25 µL 2× substrate

WRN enzyme [2] = target: T1, WRN enzyme; experiment: biochemical
Description: The WRN enzyme used in the experiment has a His-TEV tag at the N-terminus and is expressed in eukaryotic cells with a purity of 90%. The assay kit (ADP-Glo™ Kinase Assay) was purchased from Promega (Cat. No. V9101), aliquoted, and then stored in the refrigerator at -40°C. This kit could quantitatively detect the amount of ADP generated in the reaction. WRN hydrolyzed ATP to produce ADP. The ADP-Glo reagent was added to deplete excess ATP in the reaction system, followed by the addition of Kinase Detection Reagent to convert the ADP produced by the reaction into ATP and produce chemiluminescence. The enzyme activity of WRN can be reflected by detecting the chemiluminescence signal using a microplate reader.
Single-stranded DNA was annealed to form double-stranded DNA. 5× Annealing Buffer: 50 mM Tris pH 8.0, 100 mM NaCl. Annealing program: 95°C, 5 min.
2× WRN enzyme (1 nM) and 2× substrate (1 nM double-stranded DNA, 100 µM ATP) were prepared using a buffer (20 mM Bicine (pH 7.5), 10 mM KCl, 10 mM MgCl2, 0.005% BSG, 0.002% Tween 20, 1 mM TCEP). The test compound was dissolved in DMSO to 10 mM and was gradient-diluted using a 96-well V-bottom plate. First, 25 µL of 2× WRN enzyme and 0.5 µL of compound were added to a 96-well plate and incubated at room temperature for 30 min. Then, 25 µL of 2× substrate was added, and the reaction was carried out at room temperature for 60 min. 5 µL was taken from the reaction plate and transferred to a 384-well plate for detection. 5 µL of ADP-Glo reagent was added and incubated at room temperature for 60 min, followed by the addition of 10 µL of Kinase Detection Reagent and incubation at room temperature for 40 min. The chemiluminescence signal was detected using a microplate reader.

SW48 = experiment: γH2AX induction assay (HTRF Phospho-H2AX), SW48; assay type: cell-based; settings: Homo sapiens, SW-48, incubated for 2-3 days, read-out: γ-H2AX induction SW-48 (EC50 nM)
Description: (§1) SW48, HCT116, and SW620 cells were plated into 96-well cell culture plates at a density of 15,000-25,000 cells/well and cultured overnight in a 37°C incubator. The test compounds, which were gradient-diluted with DMSO, were added and incubated for 2-3 days. The γ-H2AX level was detected using HTRF Phospho-H2AX (SER139) Detection Kits. The 4× Lysis buffer and Detection buffer were equilibrated to room temperature for later use. The 4× Lysis buffer was diluted to 1× Lysis buffer using ddH2O. After the medium was aspirated, 50 µL of 1× Lysis buffer was added to each well and shaken at room temperature for 30 minutes for lysis. 16 µL of lysate was transferred to a 384-well plate, followed by the addition of 4 µL of diluted antibody mixture (Phospho-H2AX d2 antibody and Phospho-H2AX Eu Cryptate antibody were each diluted 20-fold using Detection buffer, and the two antibodies were then mixed uniformly at a 1:1 volume ratio). The mixture was incubated at room temperature for 2-24 h, and fluorescence signals at […] and 615 nm were detected using a microplate reader. Parallel treatment plates were simultaneously set up in the experiment, and cell viability was detected using the CellTiter-Glo kit. The CellTiter-Glo reagent was equilibrated to room temperature, and an appropriate amount was added to the cell plate, followed by shaking at room temperature for 12 min. The luminescence signal was detected using a microplate reader.
(§2) The fluorescence signal values of DMSO-treated wells and positive drug-treated wells were used as negative and positive controls, respectively, to calculate the level of γ-H2AX induced by the compounds. The concentration-induction rate curve was fitted using the "log(agonist) vs. response -- Variable slope (four parameters)" equation in GraphPad Prism 8 software to obtain the EC50. [formula] [formula]

SW620 cells = experiment: γH2AX induction assay (HTRF Phospho-H2AX), SW620; assay type: cell-based; settings: Homo sapiens, SW-620 (MSS), incubated for 2-3 days, read-out: γ-H2AX induction SW-620 (EC50 nM)
Description: as §1, §2

T1 sequence (Q14191 whole entry): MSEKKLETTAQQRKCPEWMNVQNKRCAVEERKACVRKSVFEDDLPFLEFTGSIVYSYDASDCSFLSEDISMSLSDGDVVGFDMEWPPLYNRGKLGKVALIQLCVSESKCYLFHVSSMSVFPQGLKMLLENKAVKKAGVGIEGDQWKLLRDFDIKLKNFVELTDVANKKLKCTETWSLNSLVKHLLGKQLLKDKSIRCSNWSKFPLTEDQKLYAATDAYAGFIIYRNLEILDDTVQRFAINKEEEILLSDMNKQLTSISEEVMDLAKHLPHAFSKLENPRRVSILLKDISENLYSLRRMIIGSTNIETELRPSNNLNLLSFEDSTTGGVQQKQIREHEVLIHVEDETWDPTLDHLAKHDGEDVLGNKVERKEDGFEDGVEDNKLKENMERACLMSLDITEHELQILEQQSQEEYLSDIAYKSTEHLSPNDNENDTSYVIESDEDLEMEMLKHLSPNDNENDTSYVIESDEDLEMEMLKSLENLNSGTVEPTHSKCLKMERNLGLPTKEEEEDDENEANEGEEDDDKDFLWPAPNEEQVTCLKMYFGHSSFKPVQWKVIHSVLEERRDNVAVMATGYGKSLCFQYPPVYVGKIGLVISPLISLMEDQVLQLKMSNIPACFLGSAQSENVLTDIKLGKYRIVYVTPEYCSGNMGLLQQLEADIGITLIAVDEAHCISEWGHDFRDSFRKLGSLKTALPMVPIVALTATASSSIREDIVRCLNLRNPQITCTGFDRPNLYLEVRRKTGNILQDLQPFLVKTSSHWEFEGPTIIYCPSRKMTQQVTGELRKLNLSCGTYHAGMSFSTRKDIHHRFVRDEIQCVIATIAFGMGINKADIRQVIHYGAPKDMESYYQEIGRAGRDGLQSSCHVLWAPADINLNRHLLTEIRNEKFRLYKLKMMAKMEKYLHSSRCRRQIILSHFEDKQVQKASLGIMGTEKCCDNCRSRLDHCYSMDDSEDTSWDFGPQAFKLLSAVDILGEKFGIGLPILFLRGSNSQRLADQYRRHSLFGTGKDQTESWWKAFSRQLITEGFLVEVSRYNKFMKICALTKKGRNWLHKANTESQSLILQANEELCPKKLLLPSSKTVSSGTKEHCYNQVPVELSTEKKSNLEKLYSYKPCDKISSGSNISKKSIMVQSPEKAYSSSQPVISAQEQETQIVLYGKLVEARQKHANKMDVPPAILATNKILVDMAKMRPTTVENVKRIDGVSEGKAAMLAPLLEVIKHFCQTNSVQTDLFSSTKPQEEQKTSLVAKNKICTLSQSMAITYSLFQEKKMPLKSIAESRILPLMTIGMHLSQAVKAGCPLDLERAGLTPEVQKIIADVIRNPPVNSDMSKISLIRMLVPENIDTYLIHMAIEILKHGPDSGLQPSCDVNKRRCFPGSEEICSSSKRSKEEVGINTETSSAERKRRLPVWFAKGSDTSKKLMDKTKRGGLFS

Structure (SMILES) | IC50 (WRN enzyme [1]) [nM] | IC50 (WRN enzyme [2]) [nM] | EC50 (SW48) [nM] | EC50 (SW620 cells) [nM]
CCc1c(N2CCN(C(=O)c3ncnc(C)c3O)CC2)c(=O)c2nn(C3=CCOCC3)nc2n1CC(=O)Nc1ccc(C(F)(F)F)cc1Cl [Example 4] | 60.9 | 88.5 | 53.8 | > 10000
CCc1c(N2CCN(C(=O)c3ncnc(C)c3O)CC2)c(=O)c2nn(C3=CCOCC3)nc2n1CC(=O)Nc1cc(F)c(C(F)(F)F)cc1Cl [Example 15] | 70.2 | 34.3 | 62.9 | > 10000
CCc1c(N2CCN(C(=O)c3ncnc(C)c3O)CC2)c(=O)c2nn(C3=CCOCC3)nc2n1CC(=O)Nc1cc(F)c(Cl)cc1Cl [Example 22] | 72.1 | 46.8 | 128 | > 10000
